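In this assay, cells in 96-well plates receive the compound at five concentrations for 48 hours. Endpoints are linearly interpolated between the surrounding concentrations. At the GI50, growth is halved. Definition used: TGI = concentration required for complete inhibition of growth.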 Where a SMILES comes first, the peptide text is derived from it. [ ]: non-standard residue; d: D form. The star is where a group is joined. Octanoyl = CCCCCCCC(=O)*; Aib = CC(C)(N)C(=O)O; tBu = CC(C)(C)*
Legend:
Assay in all cases: NCI tumour cell line growth inhibition, 48 h
MCF7 breast = system: MCF7 breast
A549 NSCLC = system: A549 NSCLC
MDA-MB-231 breast = system: MDA-MB-231 breast
MOLT-4 leukemia = system: MOLT-4 leukemia
SNB-19 CNS = system: SNB-19 CNS
SF-295 CNS = system: SF-295 CNS
UACC-62 melanoma = system: UACC-62 melanoma
BT-549 breast = system: BT-549 breast
NCI-H460 lung = system: NCI-H460 lung
K-562 leukemia = system: K-562 leukemia
SF-268 CNS = system: SF-268 CNS
CAKI-1 renal = system: CAKI-1 renal

Structure (SMILES) | TGI (MCF7 breast) [µM] | TGI (A549 NSCLC) [µM] | TGI (MDA-MB-231 breast) [µM] | TGI (MOLT-4 leukemia) [µM] | TGI (SNB-19 CNS) [µM] | TGI (SF-295 CNS) [µM] | TGI (UACC-62 melanoma) [µM] | TGI (BT-549 breast) [µM] | TGI (NCI-H460 lung) [µM] | TGI (K-562 leukemia) [µM] | TGI (SF-268 CNS) [µM] | TGI (CAKI-1 renal) [µM] | GI50 (A549 NSCLC) [µM] | GI50 (SF-268 CNS) [µM] | GI50 (MOLT-4 leukemia) [µM] | GI50 (BT-549 breast) [µM] | GI50 (CAKI-1 renal) [µM] | GI50 (NCI-H460 lung) [µM] | GI50 (K-562 leukemia) [µM] | GI50 (UACC-62 melanoma) [µM]
COc1ccc(O)c(C=NCCCN=Cc2cc(OC)ccc2O)c1 | 56.9 | > 100 | > 100 | > 100 | > 100 | 51.1 | 84.5 | > 100 | > 100 | > 100 | – | – | – | – | – | – | – | – | – | –
Cc1ccc(S(=O)(=O)OC2C(C3COC(C)(C)O3)OC3OC(C)(C)OC32)cc1 (stereo unspecified) | – | > 100 | > 100 | > 100 | > 100 | > 100 | > 100 | > 100 | > 100 | > 100 | > 100 | > 100 | – | – | – | – | – | – | – | –
CCCCCCCCCCCCCCCCOCC(COP(=O)([O-])OCC[N+](C)(C)C)OCCCCCCCCCCCCCCCC (stereo unspecified) | – | – | – | > 100 | > 100 | > 100 | > 100 | – | > 100 | > 100 | > 100 | > 100 | – | – | – | – | – | – | – | –
COc1cc2c3c(n(CCCNCCCNCCCn4c5c(c6ccccc6c4=O)C(=O)c4ccccc4-5)c(=O)c2cc1OC)-c1cc2c(cc1C3=O)OCO2 | – | 2.3 | – | > 100 | – | – | – | 1.1 | 0.0113 | > 100 | 0.0217 | 2.53 | 0.0201 | < 0.01 | < 0.01 | < 0.01 | 0.158 | < 0.01 | 0.0403 | –
Clc1c(Cl)c2c(Cl)c(Cl)c1C[P+](c1ccccc1)(c1ccccc1)CC[P+](c1ccccc1)(c1ccccc1)Cc1c(Cl)c(Cl)c(c(Cl)c1Cl)C[P+](c1ccccc1)(c1ccccc1)CC[P+](c1ccccc1)(c1ccccc1)C2 | – | 18.8 | – | 10.5 | 13.4 | 12.6 | – | – | 12.4 | 9.17 | 12.6 | 33.1 | – | – | – | – | – | – | – | –
c1ccc(/N=N/Nc2ccc(-c3nc4ccccc4[nH]3)cc2)nc1 | 23.4 | 36.4 | 25.1 | 25.4 | 44 | 35.9 | – | > 100 | 31.6 | 31.8 | – | 61.3 | – | – | – | – | – | – | – | –
O=C(c1cccnc1)N1N=C(c2ccc(Cl)cc2)CC1(O)c1cc(F)c(Cl)cc1Cl (stereo unspecified) | – | > 100 | 38.9 | > 100 | > 100 | 56.1 | – | 69.1 | > 100 | > 100 | 75 | > 100 | – | – | – | – | – | – | – | –
COc1cc([N+](=O)[O-])ccc1NC1=CC(=O)CCC1 | > 100 | > 100 | > 100 | > 100 | > 100 | > 100 | > 100 | > 100 | > 100 | > 100 | > 100 | > 100 | – | – | – | – | – | – | – | –
O=[n+]1c2ccccc2n([O-])c2cc(Br)ccc21 | 53 | 39.4 | > 100 | 2.19 | > 100 | 46.4 | 55.6 | – | > 100 | 33.4 | 55.3 | 17.2 | – | – | – | – | – | – | – | –
Oc1ccc(Cn2c(-c3ccc(O)c(O)c3)nc3ccccc32)cc1O | > 100 | 66.2 | 43.3 | 12.4 | 83.4 | 68 | – | 51 | 63.4 | 55.9 | > 100 | 54.6 | – | – | – | – | – | – | – | –
CC(=O)Oc1ccccc1C(=O)O | > 100 | > 100 | – | > 100 | > 100 | > 100 | > 100 | > 100 | – | > 100 | > 100 | > 100 | – | – | – | – | – | – | – | –
CCOC(=O)CCC(NC(=O)Cc1ccc(Oc2nc3ccccc3nc2-c2cccs2)cc1)C(=O)OCC (stereo unspecified) | > 100 | 62.8 | 29.1 | > 100 | 37.2 | > 100 | > 100 | > 100 | > 100 | > 100 | 12.6 | > 100 | – | – | – | – | – | – | – | –
CCO[C@]12C[C@H](OC)[C@@]3(O)CC(C1[C@H]3O)C13C4C2[C@H](OC)C1[C@](COC)(CN4CC)[C@H](O)C[C@@H]3OC (stereo partly specified) | – | > 100 | – | > 100 | > 100 | – | > 100 | – | > 100 | > 100 | > 100 | – | – | – | – | – | – | – | – | –
NS(=O)(=O)c1ccc(CNc2nc(-c3cccs3)nc3ccc(I)cc23)cc1 | 16.1 | 28.5 | – | 81.8 | 39.7 | 38 | 31.5 | 27.8 | 29.6 | > 100 | 61.6 | 22.8 | – | – | – | – | – | – | 36.7 | –
COc1ccc(N2C(=O)C3c4[nH]c5cccc(C)c5c4C4CCC(C(C)(C)C)CC4C3C2=O)cc1 (stereo unspecified) | > 10 | > 10 | > 10 | > 10 | > 10 | > 10 | > 10 | – | > 10 | > 10 | > 10 | > 10 | – | – | – | – | – | – | – | –
CC#C[I+]c1ccccc1 | – | > 100 | – | 42.2 | > 100 | > 100 | 57.6 | – | > 100 | 33.3 | 35.1 | 27.9 | – | – | – | – | – | – | – | –
O=[N+]([O-])c1cc(-[n+]2cc([O-])on2)ccc1F | 29.4 | 33.4 | 38 | – | 21.3 | 31.5 | 30.8 | 31.3 | 39.3 | > 100 | 28.9 | 4.2 | – | – | – | – | – | – | – | –
O=[N+]([O-])O.[Ga] | 6200 | > 10000 | > 10000 | 2130 | > 10000 | 1240 | > 10000 | > 4640 | 8990 | > 8480 | > 10000 | > 9820 | – | 3000 | – | – | – | – | – | 892
CCCCCCCC(=O)NC(C)(C)C(=O)NC(COC(C)(C)C)C(=O)NC(CC(C)C)C(=O)NC(C)(C)C(=O)NC(COC(C)(C)C)C(=O)NC(COC(C)(C)C)C(=O)NC(CC(C)C)C(=O)NC(C)(C)C(=O)NC(COC(C)(C)C)C(=O)NC(C(=O)NC(CC(C)C)C(=O)OC)C(C)CC (stereo unspecified) (Octanoyl-[Aib]S(tBu)L[Aib]S(tBu)S(tBu)L[Aib]S(tBu)IL-OMe; configuration not given here) | 17 | > 25 | 15.9 | > 25 | > 25 | > 25 | 23.7 | 13.1 | 13.8 | > 25 | > 25 | > 25 | – | – | – | – | – | – | – | –
CCCCN1C(=O)NC(Cc2ccccc2)C1=O (stereo unspecified) | – | > 100 | – | – | > 100 | > 100 | – | – | > 100 | – | > 100 | > 100 | – | – | – | – | – | – | – | –
Cn1c(-c2ccc(/C=N\N3CCN(/N=C/c4ccc(-c5c[n+]6ccsc6n5C)cc4)CC3)cc2)c[n+]2ccsc12 | > 100 | > 100 | 78.5 | > 100 | > 100 | > 100 | 95.7 | 90.3 | > 100 | 34.7 | > 100 | > 100 | – | – | – | – | – | – | – | –
